Reference: patent US20120028837A1, “RAPID SCREEN FOR REPRODUCTIVE TOXICANTS” (PRESIDENT AND FELLOWS OF HARVARD COLLEGE, priority 2010, published 2012)

Legend:
[1] = test system: H2B::mCherry; γ-tubulin::GFP transgenic worms; conditions: OD57 (pie-1::mCherry::H2B; pie-1::GFP::gamma tubulin), C. elegans, in vivo
Description: 60 first mitosis in ethanol and BPA exposed H2B::mCherry; γ-tubulin::GFP transgenic worms were captured by live imaging. While normal pronuclear fusion and chromosomal alignment and segregation in ethanol controls was observed, the first division of BPA exposed embryos was highly abnormal. […] In some instances, multiple spindle poles were apparent.
Live Imaging. For live imaging, a pie-1::mCherry::H2B; pie-1::GFP::gamma tubulin OD57 strain was used. The strain was incubated at 25° C. 24 hours prior to imaging. Images were captured using the Leica-Deltavision system described above. Worms were immobilized on an agarose pad by sectioning of the head and images of the first cell division were captured at a rate of one image every 10 seconds for 5 minutes.

C. elegans germline = conditions: in vivo, 4 days, 1 mM
Text: Synapsis and recombination are tightly linked events during pachytene throughout various species, as it is only in the context of a fully assembled SC that crossover recombination can be completed. Indeed, in C. elegans, null mutants of SC components such as syp-1, syp-2, syp-3, syp-4 and him-3, increased levels of RAD-51 foci formation and delayed kinetics of foci turnover are observed during pachytene. Consequently, there is activation of the DNA damage checkpoint leading to increased germ cell apoptosis. Recombination is an essential and highly regulated process for the exchange of information that takes place during prophase I [18]. As nuclei exit mitosis and progress through meiosis, programmed meiotic DNA double strand breaks (DSBs) are formed and processed by several DNA repair proteins including RAD-51 [25, 48]. RAD-51 levels vary greatly during progression through prophase I as it is loaded onto DNA during the process of strand invasion and is removed as DSBs repair progresses. […] As unrepaired recombination intermediates can trigger a DNA-damage checkpoint during pachytene leading to increased germ cell apoptosis, the number of apoptotic nuclei following BPA exposure was measured by Syto-12 staining. […]
Rad-51 Time Course Analysis. The number of RAD-51 foci and their kinetics throughout the seven zones was assessed as described in [25]. […]

[2] = test system: C. elegans diakinesis oocytes; experiment: Diakinesis oocyte analysis (chromosome condensation, SYP-1, AIR-2, pH3); conditions: for -1 oocytes showing lack of condensation: BPA
Text: Proper processing of recombination events is coupled with the formation of mature bivalents during the diakinesis stage such that in mutants where recombination intermediate processing is impaired, bivalent maturation is delayed.
Associated with the changes in chromatin morphology, the SC is disassembled during late diakinesis in a tightly controlled fashion. Accordingly, SC components, such as SYP-1, are detectable on the short arms of the bivalent in the −3 oocyte but are essentially absent from the bivalents of −2 and −1 oocytes. Thus, whether a delay in chromosome remodeling could correlate with an incomplete disassembly of SC components in late diakinesis was examined.
Accurate chromosome segregation at meiosis I is characterized by the carefully orchestrated loss of cohesion between homologs coupled with retention of cohesion between sister chromatids. This regulated process involves the targeting of the Aurora-B kinase AIR-2, a member of the chromosomal passenger complex, to the short arm of the bivalents in the −1 oocyte which has been proposed to lead to the removal the meiosis-specific cohesin REC-8 from the short arms of the bivalent. To examine whether these key steps in late meiotic prophase I might be impaired in BPA treated gonads, the localization of AIR-2 in the −1 oocytes was examined. […] Phospho histone H3 (pH3) is a canonical substrate for the activity of AIR-2 [59] and accordingly, although it accumulates in the −3 to −1 oocytes, it is only detected on the short arms of the bivalent in the −1 oocyte in the presence of AIR-2 [56, 57].
BPA bears endocrine disrupting activity in many developmental contexts including gonadal, brain and mammary gland development. BPA has affinity for multiple members of the estrogen receptors family, in particular BPA binds to the human estrogen receptor alpha (ERα) and ERβ as well as estrogen-related receptor gamma (ERR-γ) and in C. elegans with nuclear hormone receptor NHR-14 which also binds estrogen. […] Two hallmarks of exposure to BPA were examined, the decrease in the size of the proliferative zone and the condensation defects observed at diakinesis, as they are both highly penetrant and consistent phenotypes. […] Similarly to the experiments described above, the size of the mitotic zone was quantified as well as condensation defects at diakinesis.
Antibody Staining. DAN staining, immunostaining and analysis of stained meiotic nuclei were performed as in [25] except for ATL-1 and AIR-2 antibodies were dissected gonads were subjected to a 1% fixation method as described in [27]. Antibodies were used at the following dilutions: rabbit α-SYP-1 (1:100), mouse α-RAD-51 (1:100), rabbit α-HTP-3 (1:500), guinea pig α-HIM-8 (1:100), rabbit α-ATL-1 (1:50), rabbit α-AIR-2 (1:100) and rabbit α-pCHK-1 (1:100). The secondary antibodies used were: Cy3 anti-rabbit, FITC anti-guinea-pig and FITC anti-mouse (Jackson Immunochemicals), each at 1:100, Stacks of 0.2 μm slices were captured using a Leica microscope, coupled to the DeltaVision fluorescence microscope system (Applied Precision). The images were projections approximately halfway through 3D data stacks of whole nuclei, except for diakinesis images which encompass entire nuclei.

xol-1::GFP, nx3 worms = experiment: Lethality, chemical sensitivity of xol-1::GFP, nx3 cuticle mutant strain; format: in vivo, C. elegans; conditions: four days
Description: The sensitivity of the xol-1::GFP, nx3 strain compared to the xol-1::GFP strain was assayed by exposing 25 worms for four days (from eggs to adulthood) to a range of concentration of Bisphenol A: 100 μM, 500 μM and 1 mM. The nx3 cuticle mutation was expected to confer increased sensitivity to BPA.

## CC(C)(c1ccc(O)cc1)c1ccc(O)cc1 [BPA, Bisphenol A]
[1]
  one-cell embryos failing to align on the metaphase plate and/or segregate properly: 9/60
C. elegans germline
  RAD-51 foci in late pachytene (zones 6 and 7): elevated number of RAD-51 foci
[2]; BPA exposed gonads
  gonads with SYP-1 staining on short arm of bivalent in the -1 oocyte: 10%
[2]; BPA treated
  -1 oocytes with pH3 staining localized to the bivalents: 14%
[2]; BPA treated gonads
  gonads in which AIR-2 was not detected on the bivalents of -1 oocytes: 100%
  gonads in which the -1 oocyte did not show normal chromosome condensation: 23%
  gonads with residual SYP-1 staining on short arm of bivalent in the -2 oocyte: 80%
[2]; BPA treated oocytes
  kinetics of pH3 nuclear accumulation in diakinesis oocytes: delay in the kinetics of pH3 nuclear accumulation
[2]; one day post-L4
  -1 oocytes showing lack of condensation: 17%
[2]; three days post-L4
  -1 oocytes showing lack of condensation: 28%
[2]; two days post-L4
  -1 oocytes showing lack of condensation: 24%
[2]; all BPA gonads examined, from -1, -2 or -3 oocyte
  delay in bivalent maturation judged by nuclear morphology: some level of delay in bivalent maturation
xol-1::GFP, nx3 worms; 100 μM
  lethality: 0%
xol-1::GFP, nx3 worms; 500 μM
  lethality: 96%
xol-1::GFP, nx3 worms; 1 Mm
  lethality: 100%
